Test results from patent publication US8263567B2, “Treatment of hyperproliferative conditions of body surfaces” (Valderm APS, priority 2001, dated 2012).

Key:
DNA Synthesis = details: grade and speed (rapid/slow); cited from earlier work
RNA Synthesis = details: grade and speed (rapid/slow); cited from earlier work
[1] = cited from earlier work
psoriasis vulgaris = assay: Clinical trial, topical therapy of psoriasis vulgaris (Examples 11-16); type: in vivo, human
Method: A patient having dermal manifestations of psoriasis vulgaris was selected for therapy using the invention. Valrubicin was prepared as a solution (ref ex, 5) at a concentration of 2% (weight/weight) and was applied to the affected skin once daily. The patient was monitored for improvement in their manifestations of psoriasis. […] A patient having dermal manifestations of psoriasis vulgaris was selected for therapy using the invention. Valrubicin was prepared as a solution (ref ex. 8) at a concentration of 0.5% (weight/weight) and was applied to the affected skin once daily. The patient was monitored for improvement in their manifestations of psoriasis. […] A patient having dermal manifestations of psoriasis vulgaris was selected for therapy using the invention. Valrubicin was prepared as a gel (ref ex. 6) at a concentration of 1% (weight/weight) and was applied to the affected skin once daily. The patient was monitored for improvement in their manifestations of psoriasis. […] A patient having dermal manifestations of psoriasis vulgaris was selected for therapy using the invention. Valrubicin was prepared as a solution (ref. ex 5) at a concentration of 2.0% (weight/weight) and was applied to the affected skin twice daily. The patient was monitored for improvement in their manifestations of psoriasis. […] A patient having dermal manifestations of psoriasis vulgaris was selected for therapy using the invention. Valrubicin was prepared as a solution (ref. ex 5) at a concentration of 2.0 (weight/weight) and was applied to the affected skin twice a week. The patient was monitored for improvement in their manifestations of psoriasis. […] A patient having dermal manifestations of psoriasis vulgaris was selected for therapy using the invention. Valrubicin was prepared as a solution (ref. ex 5) at a concentration of 2.0% (weight/weight) and was applied to the affected skin once a week. The patient was monitored for improvement in their manifestations of psoriasis.

[2] = 40 mg/ml intravesical instillation of two hours, 6 times once a week; cited from earlier work
[3] = compared to other anthracyclines; cited from earlier work
normal dermal epithelium = details: histopathological animal experiments; cited from earlier work
[4] = concentration similar to that used in treatment of bladder cancer; cited from earlier work
[5] = in vivo; cited from earlier work
[6] = paravenous injection; cited from earlier work

COc1cccc2c1C(=O)c1c(O)c3c(c(O)c1C2=O)C[C@@](O)(C(=O)CO)C[C@@H]3O[C@H]1C[C@H](N)[C@H](O)[C@H](C)O1 [Doxorubicin]
DNA Synthesis inhibition (DNA Synthesis): +++ (slow) | RNA Synthesis inhibition (RNA Synthesis): + (slow) | In vivo elimination [1]: Slow | In vivo metabolism [1]: Minimal

CCCCC(=O)OCC(=O)[C@]1(O)Cc2c(O)c3c(c(O)c2[C@@H](O[C@H]2C[C@H](NC(=O)C(F)(F)F)[C@H](O)[C@H](C)O2)C1)C(=O)c1c(OC)cccc1C3=O [Valrubicin, N-trifluoroacetyladriamycin-14-valerate]
Skin lesions of psoriasis (psoriasis vulgaris; gel (ex. 6) 1% w/w, once daily): skin lesions had subsided | Skin lesions of psoriasis (psoriasis vulgaris; solution (ex. 5) 2.0% w/w, once a week): skin lesions had subsided | Skin lesions of psoriasis (psoriasis vulgaris; solution (ex. 5) 2% w/w, once daily): skin lesions had subsided | Skin lesions of psoriasis (psoriasis vulgaris; solution (ex. 5) 2.0% w/w, twice daily): skin lesions had subsided | Skin lesions of psoriasis (psoriasis vulgaris; solution (ex. 5) 2.0 (weight/weight), twice a week): skin lesions had subsided | Skin lesions of psoriasis (psoriasis vulgaris; solution (ex. 8) 0.5% w/w, once daily): skin lesions had subsided | DNA Synthesis inhibition (DNA Synthesis): +++ (rapid) | RNA Synthesis inhibition (RNA Synthesis): +++ (rapid) | In vivo elimination [1]: rapid | In vivo metabolism [1]: Extensive | Depth into the epithelium of the bladder at which an effective concentration is found [2]: 1800 μm | Systemic uptake [2]: does not result in systemic uptake | Lipophilicity [3]: very lipophilic | Effect on normal dermal epithelium (normal dermal epithelium): does not affect normal dermal epithelium | Irritation of skin and eyes [4]: mild to no irritation | Cardiotoxicity and haematological toxicity versus other anthracyclines [5]: less cardiotoxic and haematologically toxic

COc1cccc2c1C(=O)c1c(O)c3c(c(O)c1C2=O)C[C@@](O)(C(=O)CO)C[C@@H]3O[C@H]1C[C@H](N)[C@@H](O)[C@H](C)O1 [epirubicin]
Local tissue toxicity [6]: severe necrosis
